Measured values as given in PubChem BioAssay (NCI).
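Five concentrations, 48 hours, 96-well plates. GI50 = concentration required for 50% inhibition of growth. TGI: concentration producing complete growth inhibition.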

Experiments:
Assay in all cases: NCI anticancer screen, dose series, 48 h
MDA-MB-435 = tested on: MDA-MB-435
SK-MEL-28 melanoma = tested on: SK-MEL-28 melanoma
SNB-19 CNS = tested on: SNB-19 CNS
RXF 393 renal = tested on: RXF 393 renal
SK-MEL-5 melanoma = tested on: SK-MEL-5 melanoma
MCF7 breast = tested on: MCF7 breast
NCI/ADR-RES ovarian = tested on: NCI/ADR-RES ovarian
HCC-2998 colon = tested on: HCC-2998 colon
MALME-3M melanoma = tested on: MALME-3M melanoma
IGROV1 ovarian = tested on: IGROV1 ovarian
HOP-62 NSCLC = tested on: HOP-62 NSCLC
MOLT-4 leukemia = tested on: MOLT-4 leukemia
T-47D breast = tested on: T-47D breast
SN12C renal = tested on: SN12C renal
M14 melanoma = tested on: M14 melanoma
RPMI-8226 leukemia = tested on: RPMI-8226 leukemia
MDA-MB-231 breast = tested on: MDA-MB-231 breast
NCI-H522 lung = tested on: NCI-H522 lung
SF-539 CNS = tested on: SF-539 CNS
HCT-15 colon = tested on: HCT-15 colon
SF-295 CNS = tested on: SF-295 CNS
NCI-H226 lung = tested on: NCI-H226 lung
HL-60(TB) leukemia = tested on: HL-60(TB) leukemia
KM12 colon = tested on: KM12 colon
786-0 renal = tested on: 786-0 renal
SK-MEL-2 melanoma = tested on: SK-MEL-2 melanoma
SK-OV-3 ovarian = tested on: SK-OV-3 ovarian
OVCAR-4 ovarian = tested on: OVCAR-4 ovarian
HT29 colon = tested on: HT29 colon
NCI-H460 lung = tested on: NCI-H460 lung
HOP-92 NSCLC = tested on: HOP-92 NSCLC
SW-620 colon = tested on: SW-620 colon
SNB-75 CNS = tested on: SNB-75 CNS
HCT-116 colon = tested on: HCT-116 colon
K-562 leukemia = tested on: K-562 leukemia
NCI-H23 lung = tested on: NCI-H23 lung
UACC-257 melanoma = tested on: UACC-257 melanoma
A498 renal = tested on: A498 renal
SF-268 CNS = tested on: SF-268 CNS
PC-3 prostate = tested on: PC-3 prostate
TK-10 renal = tested on: TK-10 renal
COLO 205 colon = tested on: COLO 205 colon
OVCAR-8 ovarian = tested on: OVCAR-8 ovarian
SR leukemia = tested on: SR leukemia
UO-31 renal = tested on: UO-31 renal
LOX IMVI melanoma = tested on: LOX IMVI melanoma
DU-145 prostate = tested on: DU-145 prostate
CAKI-1 renal = tested on: CAKI-1 renal
OVCAR-3 ovarian = tested on: OVCAR-3 ovarian
OVCAR-5 ovarian = tested on: OVCAR-5 ovarian
UACC-62 melanoma = tested on: UACC-62 melanoma
A549 NSCLC = tested on: A549 NSCLC
CCRF-CEM leukemia = tested on: CCRF-CEM leukemia
U251 CNS = tested on: U251 CNS
BT-549 breast = tested on: BT-549 breast
HS 578T breast = tested on: HS 578T breast
ACHN renal = tested on: ACHN renal
EKVX NSCLC = tested on: EKVX NSCLC

`Nc1ccccc1SCc1csc(-c2ccc(Cl)cc2)n1` gave a TGI (MDA-MB-435) of 37.8 µM, a TGI (SK-MEL-28 melanoma) of over 94.5 µM and a TGI (SNB-19 CNS) of over 100 µM. For the same molecule, the TGI (RXF 393 renal) was 60.4 µM, the TGI (SK-MEL-5 melanoma) was 28.7 µM and the TGI (MCF7 breast) was 71.8 µM. For the same molecule, the TGI (NCI/ADR-RES ovarian) was 66.4 µM, the TGI (HCC-2998 colon) was 47.1 µM and the TGI (MALME-3M melanoma) was 47 µM. It also gave a TGI (IGROV1 ovarian) of over 100 µM, a TGI (HOP-62 NSCLC) of over 90.6 µM and a TGI (MOLT-4 leukemia) of 25 µM. The TGI (T-47D breast) was 23.4 µM, the TGI (SN12C renal) was 34.2 µM and the TGI (M14 melanoma) was 41.7 µM. For the same molecule, the TGI (RPMI-8226 leukemia) was 44.7 µM, the TGI (MDA-MB-231 breast) was 54.6 µM and the TGI (NCI-H522 lung) was 31.1 µM. The TGI (SF-539 CNS) was 53.2 µM, the TGI (HCT-15 colon) was over 82.1 µM and the TGI (SF-295 CNS) was over 100 µM. It also gave a TGI (NCI-H226 lung) of 62.5 µM, a TGI (HL-60(TB) leukemia) of 23.9 µM and a TGI (KM12 colon) of 47.4 µM. The TGI (786-0 renal) was 47.5 µM, the TGI (SK-MEL-2 melanoma) was 35.2 µM and the TGI (SK-OV-3 ovarian) was over 89.6 µM. It also gave a TGI (OVCAR-4 ovarian) of over 77.1 µM, a TGI (HT29 colon) of 46.2 µM and a TGI (NCI-H460 lung) of over 77.2 µM. The TGI (HOP-92 NSCLC) was 60.1 µM, the TGI (SW-620 colon) was over 100 µM and the TGI (SNB-75 CNS) was over 100 µM. For the same molecule, the TGI (HCT-116 colon) was over 100 µM, the TGI (K-562 leukemia) was 63.9 µM and the TGI (NCI-H23 lung) was over 84.6 µM. The TGI (UACC-257 melanoma) was over 77.7 µM, the TGI (A498 renal) was 55.9 µM and the TGI (SF-268 CNS) was over 100 µM. It also gave a TGI (PC-3 prostate) of over 71.5 µM, a TGI (TK-10 renal) of over 100 µM and a TGI (COLO 205 colon) of 34.6 µM. For the same molecule, the TGI (OVCAR-8 ovarian) was over 100 µM, the TGI (SR leukemia) was 29.9 µM and the TGI (UO-31 renal) was 46.6 µM. It also gave a TGI (LOX IMVI melanoma) of 35.2 µM, a TGI (DU-145 prostate) of 99.1 µM and a TGI (CAKI-1 renal) of over 100 µM. It also gave a TGI (OVCAR-3 ovarian) of over 67.6 µM, a TGI (OVCAR-5 ovarian) of over 95.2 µM and a TGI (UACC-62 melanoma) of over 64 µM. The TGI (A549 NSCLC) was over 100 µM, the TGI (CCRF-CEM leukemia) was 67.1 µM and the TGI (U251 CNS) was 60.1 µM. It also gave a TGI (BT-549 breast) of 72.1 µM, a TGI (HS 578T breast) of over 91.5 µM and a TGI (ACHN renal) of 73.2 µM. For the same molecule, the TGI (EKVX NSCLC) was 86.9 µM.

Work on `CC(C)(C)CN1CCn2c(nc3c(N)nccc32)S1` yielded a GI50 (MDA-MB-435) of 6.67 µM, a TGI (MDA-MB-435) of 86.1 µM and a GI50 (SK-MEL-28 melanoma) of 13.5 µM. The TGI (SK-MEL-28 melanoma) was 29.7 µM, the GI50 (SNB-19 CNS) was 32.8 µM and the TGI (SNB-19 CNS) was over 100 µM. The GI50 (RXF 393 renal) was 15.7 µM, the TGI (RXF 393 renal) was 64.5 µM and the GI50 (SK-MEL-5 melanoma) was 14.5 µM. For the same molecule, the TGI (SK-MEL-5 melanoma) was 31.1 µM, the GI50 (MCF7 breast) was 3.97 µM and the TGI (MCF7 breast) was 37 µM. The GI50 (NCI/ADR-RES ovarian) was 17.1 µM, the TGI (NCI/ADR-RES ovarian) was over 100 µM and the GI50 (HCC-2998 colon) was 13.7 µM. It also gave a TGI (HCC-2998 colon) of 34.8 µM, a GI50 (MALME-3M melanoma) of 7.72 µM and a TGI (MALME-3M melanoma) of 41.3 µM. For the same molecule, the GI50 (IGROV1 ovarian) was 11.7 µM, the TGI (IGROV1 ovarian) was 30.3 µM and the GI50 (HOP-62 NSCLC) was 17 µM. For the same molecule, the TGI (HOP-62 NSCLC) was over 100 µM, the GI50 (MOLT-4 leukemia) was 5.55 µM and the TGI (MOLT-4 leukemia) was 82 µM. For the same molecule, the GI50 (T-47D breast) was 13 µM, the TGI (T-47D breast) was over 100 µM and the GI50 (SN12C renal) was 6.55 µM. For the same molecule, the TGI (SN12C renal) was over 100 µM, the GI50 (M14 melanoma) was 5.68 µM and the TGI (M14 melanoma) was 24.9 µM. The GI50 (RPMI-8226 leukemia) was 36.1 µM, the TGI (RPMI-8226 leukemia) was over 100 µM and the GI50 (MDA-MB-231 breast) was 19.8 µM. For the same molecule, the TGI (MDA-MB-231 breast) was over 100 µM, the GI50 (NCI-H522 lung) was 13.5 µM and the TGI (NCI-H522 lung) was 31.6 µM. It also gave a GI50 (SF-539 CNS) of 18.2 µM, a TGI (SF-539 CNS) of 78.9 µM and a GI50 (HCT-15 colon) of 3.92 µM. The TGI (HCT-15 colon) was 26.2 µM, the GI50 (SF-295 CNS) was 12 µM and the TGI (SF-295 CNS) was over 100 µM. The GI50 (NCI-H226 lung) was 37.2 µM, the TGI (NCI-H226 lung) was over 100 µM and the GI50 (HL-60(TB) leukemia) was 4.77 µM. It also gave a TGI (HL-60(TB) leukemia) of 25.7 µM, a GI50 (KM12 colon) of 4.23 µM and a TGI (KM12 colon) of 17.1 µM. It also gave a GI50 (786-0 renal) of 21 µM, a TGI (786-0 renal) of over 100 µM and a GI50 (SK-MEL-2 melanoma) of 69.3 µM. The TGI (SK-MEL-2 melanoma) was over 100 µM, the GI50 (SK-OV-3 ovarian) was 5.15 µM and the TGI (SK-OV-3 ovarian) was 81 µM. The GI50 (OVCAR-4 ovarian) was 13.6 µM, the TGI (OVCAR-4 ovarian) was 40.1 µM and the GI50 (NCI-H460 lung) was 4.25 µM. The TGI (NCI-H460 lung) was 17.3 µM, the GI50 (HOP-92 NSCLC) was 96.5 µM and the TGI (HOP-92 NSCLC) was over 100 µM. For the same molecule, the GI50 (SW-620 colon) was 4.16 µM, the TGI (SW-620 colon) was 30.1 µM and the GI50 (SNB-75 CNS) was 51.5 µM. It also gave a TGI (SNB-75 CNS) of over 100 µM, a GI50 (HCT-116 colon) of 4.61 µM and a TGI (HCT-116 colon) of 17.1 µM. It also gave a GI50 (K-562 leukemia) of 4.64 µM, a TGI (K-562 leukemia) of 67.7 µM and a GI50 (NCI-H23 lung) of 5.17 µM. It also gave a TGI (NCI-H23 lung) of 34 µM, a GI50 (UACC-257 melanoma) of 19.7 µM and a TGI (UACC-257 melanoma) of 79.1 µM. The GI50 (SF-268 CNS) was 12.5 µM, the TGI (SF-268 CNS) was 34.9 µM and the GI50 (PC-3 prostate) was 11 µM. For the same molecule, the TGI (PC-3 prostate) was over 100 µM, the GI50 (TK-10 renal) was 16.6 µM and the TGI (TK-10 renal) was over 100 µM. For the same molecule, the GI50 (COLO 205 colon) was 4.02 µM, the TGI (COLO 205 colon) was 16.3 µM and the GI50 (OVCAR-8 ovarian) was 6.27 µM. The TGI (OVCAR-8 ovarian) was over 100 µM, the GI50 (SR leukemia) was 3.24 µM and the TGI (SR leukemia) was 47.4 µM. For the same molecule, the GI50 (UO-31 renal) was 37.1 µM, the TGI (UO-31 renal) was over 100 µM and the GI50 (LOX IMVI melanoma) was 9.5 µM. For the same molecule, the TGI (LOX IMVI melanoma) was 23.5 µM, the GI50 (DU-145 prostate) was 4.46 µM and the TGI (DU-145 prostate) was over 100 µM. It also gave a GI50 (CAKI-1 renal) of 25.3 µM, a TGI (CAKI-1 renal) of over 100 µM and a GI50 (OVCAR-3 ovarian) of 12.3 µM. The TGI (OVCAR-3 ovarian) was 29.3 µM, the GI50 (OVCAR-5 ovarian) was 12.9 µM and the TGI (OVCAR-5 ovarian) was 42 µM. The GI50 (UACC-62 melanoma) was 13.7 µM, the TGI (UACC-62 melanoma) was 88.5 µM and the GI50 (A549 NSCLC) was 8.09 µM. It also gave a TGI (A549 NSCLC) of 44.4 µM, a GI50 (CCRF-CEM leukemia) of 10.2 µM and a TGI (CCRF-CEM leukemia) of over 100 µM. The GI50 (U251 CNS) was 13.3 µM, the TGI (U251 CNS) was 47.2 µM and the GI50 (BT-549 breast) was 19.1 µM. The TGI (BT-549 breast) was 66.1 µM, the GI50 (HS 578T breast) was 33.6 µM and the TGI (HS 578T breast) was over 100 µM. It also gave a GI50 (ACHN renal) of 7.45 µM, a TGI (ACHN renal) of over 100 µM and a GI50 (EKVX NSCLC) of 30.9 µM. The TGI (EKVX NSCLC) was over 100 µM.
